In patent US5900406A, “Use of antibiotics of the type 2-deoxystreptamine substituted with aminosugars to inhibit growth of microorganisms containing group I introns” (NZYM, Inc., priority 1991, dated 1999):
Read-outs that look alike come from different tables or passages of the source.

What was measured:
[1] = test system: td intron (group I intron of the thymidylate synthase gene of phage T4, truncated version); assay type: biochemical; details: for IC50: read-out: concentration giving approximately 50% inhibition of the second splice step of the td intron; for ability to inhibit the group I intron splice reaction: antibiotics known to interact with 23S rRNA; for inhibition of group I splicing: at millimolar concentrations
Protocol: In vitro-transcribed and gel-purified^8 preRNA from a truncated version of the td intron^21 was incubated in a splicing buffer (50 mM Tris-HCl, pH 7.5, 5 mM MgCl2, 0.4 mM spermidine) for 10 min at 37° C. with GTP and gentamicin as indicated. Samples were separated on 5% acrylamide/7 M urea gels. RNA species are as follows: In-E2, intron-exon 2; L-ln, linear intron; E1-E2, ligated exons; E1, exon 1.
FIGS. 3a-c, Splicing experiments were done with the td intron as described in FIG. 2a, using several members of each family of aminoglycoside antibiotics (gentamicin, kanamycin and neomycin). Structures of the antibiotics can be found in Davies and Yagisaura in Biochemistry and Genetic Function Of Commercially Important Antibiotics, p. 329-354, Addison-Wesley, London, (1983) "Conc" is the antibiotic concentration at which about 50% inhibition was observed.
To monitor the splice process in vitro precursor RNA containing exon1, intron and exon2 was synthesized by in vitro transcription using bacteriophage RNA polymerase. During transcription, a radioactive labeled nucleotide was present in the nucleotide mixture and was incorporated in the RNA. This radioactive labeled RNA was then subjected to splicing conditions and after reaction the RNA splice products were separated from each other by electrophoresis on a denaturing acrylamide gel. The gel was dried and exposed for autoradiography.
Unspliced precursor RNA from the thymidylate synthase gene of the phage T4, which had been transcribed in vitro, and purified as previously described, (Schroeder, R., von Ahsen, U. & Belfort, M. Biochemistry 30, 3295-3303 (1991)) was incubated with increasing amounts of gentamicin under normal splicing conditions.
(§1) Materials and Methods: In vitro splicing experiments were performed with a truncated version of the td gene, containing 79 nt of exon I, 265 nt of intron sequences containing only the catalytic core (delta P6-2) and 21 nt of exon H (Schroeder, von Ahsen, & Belfort, 199 1, Biochemistry 30, 3295). The plasmids containing the Tetrahymena rRNA intron and the yeast mitochondrial cob intron I (the group II intron) were pBGST7 (Been & Cech, 1986, Cell 47, 207) and pBSbIl (Schmelzer and Schweyen, 1986, Cell 46, 557), respectively. The sunY intron is described in Michel et al. (1990, Genes & Development 4, 777). DNA was prepared by the alkaline-lysis procedure and linearized with appropriate restriction enzymes. Transcription was performed in a total volume of 20 μl at 30° C. for one (1) hour in buffer containing 40 mM Tris-HCl pH 7.5, 3 mM MgCl2, 0.4 mM spermidine, 1 mM of each NTP, 5 mM […], 10 units T7 RNA polymerase (Boehringer Mannheim), 10 μCi alpha-^35 S-CTP and 10 units RNAse inhibitor (Boehringer Mannheim). The reaction mixture was loaded on a 5% polyacrylamide/7 M urea gel. Precursor RNA was cut out of the gel and soaked in 400 μl elution buffer (10 mM Tris-HCl pH 7.5, 10 mM EDTA, 3.5 M NH4 OAc, 0.1% SDS) for two hours. After ethanol precipitation, the RNA was dissolved in H2 O-- before splicing experiments were performed the RNA was incubated in splicing buffer (40 mM Tris-HCl pH 7.5, 8 mM MgCl2, 0.4 mM spermidine) for 2 min at 56° C. For splicing of the suny intron and the Tetrahymena intron 50 mM NH4 Cl or 200 mM NaCl were added, respectively. Splicing was initiated by addition of guanosine at the appropriate concentration at 37° C. When splicing was to be inhibited by antibiotic, the antibiotic was added immediately before the guanosine. Splicing reactions were performed at 37° C. for 10'.

[2] = test system: sunY intron (shortened version, construct SYC1.3); experiment: In vitro splicing inhibition of the sunY group I intron (GTP incorporation assay); assay type: biochemical, T4-phage
Protocol: as §1, with “DNA” for “Materials and Methods: In vitro splicing experiments were performed with a truncated version of the td gene, containing 79 nt of exon I, 265 nt of intron sequences containing only the catalytic core (delta P6-2) and 21 nt of exon H (Schroeder, von Ahsen, & Belfort, 199 1, Biochemistry 30, 3295). The plasmids containing the Tetrahymena rRNA intron and the yeast mitochondrial cob intron I (the group II intron) were pBGST7 (Been & Cech, 1986, Cell 47, 207) and pBSbIl (Schmelzer and Schweyen, 1986, Cell 46, 557), respectively. The sunY intron is described in Michel et al. (1990, Genes & Development 4, 777). DNA”, “10'. […] Samples were separated on 5% acrylamide/7 M urea gels.” for “10'.”

[3] = in vitro splicing, 37° C., 10 min

| Molecule | IC50 [1, 3] | further results |
| --- | --- | --- |
| 2"-phospho-Gentamicin C | ~100 µM | – |
| CN[C@@H]1[C@@H](O)[C@@H](O[C@@H]2[C@@H](O)[C@H](O[C@H]3OC(CN)=CC[C@H]3N)[C@@H](N)C[C@H]2NC(C)=O)OC[C@]1(C)O [1-N-acetyl-Sisomicin] | ~100 µM | – |
| CN[C@@H]1[C@@H](O)[C@@H](O[C@@H]2[C@H](O)[C@H](O[C@H]3OC(CN)=CC[C@H]3N)[C@@H](N)C[C@H]2N)OC[C@]1(C)O [5-epi-Sisomicin] | ~0.5 µM | – |
| CN[C@@H]1[C@@H](O[C@H]2O[C@H](CO)[C@@H](N)[C@H](O)[C@H]2O)OC2C[C@@H](N)[C@@H](O[C@H]3[C@H](O)[C@@H](O)[C@H](N)C[C@@H]3N)OC2[C@@H]1O (some centres unmarked) [Apramycin] | ~200 µM | – |
| CNC1C(O)C(OC2C(N)CC(N)C(OC3OC(CN)CCC3N)C2O)OCC1(C)O (centres unmarked) [Dihydrosisomicin] | ~100 µM | – |
| CN[C@@H]1[C@@H](O)[C@@H](O[C@@H]2[C@@H](O)[C@H](O)[C@@H](N)C[C@H]2N)OC[C@]1(C)O [Garamine] | ~200 µM | – |
| CN[C@@H]1[C@@H](O)[C@@H](O[C@@H]2[C@@H](O)[C@H](O[C@H]3O[C@H](CN)[C@@H](O)[C@H](O)[C@H]3O)[C@@H](N)C[C@H]2N)OC[C@]1(C)O [Gentamicin B] | ~10 µM | – |
| NC[C@H]1O[C@H](O[C@H]2[C@H](O)[C@@H](O[C@H]3O[C@H](CO)[C@@H](O)[C@H](N)[C@H]3O)[C@H](N)C[C@@H]2N)[C@H](N)[C@@H](O)[C@@H]1O [Kanamycin B] | ~10 µM | – |
| NC[C@@H]1O[C@H](O[C@H]2[C@@H](O)[C@H](O[C@@H]3[C@@H](O)[C@H](N)C[C@H](N)[C@H]3O[C@H]3O[C@H](CO)[C@@H](O)C[C@H]3N)O[C@@H]2CO)[C@H](N)[C@@H](O)[C@@H]1O[C@H]1O[C@H](CO)[C@@H](O)[C@H](O)[C@@H]1O [Lividomycin] | ~500 µM | – |
| NC[C@H]1O[C@H](O[C@H]2[C@H](O)[C@@H](O)[C@H](N)C[C@@H]2N)[C@H](N)[C@@H](O)[C@@H]1O [Neamine] | ~200 µM | – |
| NC[C@@H]1O[C@H](O[C@H]2[C@@H](O)[C@H](O[C@@H]3[C@@H](O)[C@H](N)C[C@H](N)[C@H]3O[C@H]3O[C@H](CN)[C@@H](O)[C@H](O)[C@H]3N)O[C@@H]2CO)[C@H](N)[C@@H](O)[C@@H]1O [Neomycin B] | ~0.5 µM | lowest concentration with splicing inhibition activity ([1]; activity at a concentration as low as): 0.5 µM; antibiotic concentration affecting the first step of splicing ([1]; first step affected only at this concentration): 100 µM; concentration to which the sunY intron is sensitive [2]: 10 AM |
| NC[C@@H]1O[C@H](O[C@H]2[C@@H](O)[C@H](O[C@@H]3[C@@H](O)[C@H](N)C[C@H](N)[C@H]3O[C@H]3O[C@H](CO)[C@@H](O)[C@H](O)[C@H]3N)O[C@@H]2CO)[C@H](N)[C@@H](O)[C@@H]1O [Paromomycin] | ~100 µM | – |
| CN[C@@H]1[C@@H](O)[C@@H](O[C@@H]2[C@@H](O)[C@H](O[C@H]3OC(CN)=CC[C@H]3N)[C@@H](N)C[C@H]2N)OC[C@]1(C)O [Sisomicin] | ~50 µM | – |
| O=C(N[C@H](CO)[C@H](O)c1ccc([N+](=O)[O-])cc1)C(Cl)Cl [chloramphenicol] | – | ability to inhibit the group I intron splice reaction [1]: not able to inhibit; inhibition of group I splicing [1]: inactive |
| CC[C@H]1OC(=O)[C@H](C)[C@@H](O[C@H]2C[C@@](C)(OC)[C@@H](O)[C@H](C)O2)[C@H](C)[C@@H](O[C@@H]2O[C@H](C)C[C@H](N(C)C)[C@H]2O)[C@](C)(O)C[C@@H](C)C(=O)[C@H](C)[C@@H](O)[C@]1(C)O [erythromycin] | – | ability to inhibit the group I intron splice reaction [1]: not able to inhibit; inhibition of group I splicing [1]: inactive |
| CN[C@H]1C[C@@H](N)[C@H](O)[C@@H](O[C@@H]2O[C@H](CO)[C@H](O)[C@@H]3OC4(O[C@H]23)O[C@H]([C@@H](N)CO)[C@H](O)[C@H](O)[C@H]4O)[C@@H]1O (some centres unmarked) [hygromycin B] | – | inhibition of group I splicing [1]: inactive |
| C[C@H]1O[C@H](O[C@H]2[C@H](O)[C@@H](O)[C@@H](O)[C@H](O)[C@@H]2O)[C@@H](N)C[C@@H]1NC(=N)C(=O)O [kasugamycin] | – | inhibition of group I splicing [1]: inactive |
| CN[C@@H]1[C@H](O)[C@H](NC)[C@H]2O[C@@]3(O)C(=O)C[C@@H](C)O[C@H]3O[C@@H]2[C@H]1O [spectinomycin] | – | inhibition of group I splicing [1]: inactive |
| C=C[C@]1(C)C[C@@H](OC(=O)CSCCN(CC)CC)[C@]2(C)[C@H](C)CC[C@]3(CCC(=O)[C@H]32)[C@@H](C)[C@@H]1O [tiamulin] | – | ability to inhibit the group I intron splice reaction [1]: not able to inhibit |
| Gentamicin C | – | IC50 [1]: ~1 µM |
| noursethricin | – | ability to inhibit the group I intron splice reaction [1]: not able to inhibit |
